Format in all cases: biochemical
In one experiment the target is T1, recombinant human VAP-1 (Homo sapiens, UniProt Q16853).
T1 construct: purchased R&D systems
T1 sequence (Q16853 1-763): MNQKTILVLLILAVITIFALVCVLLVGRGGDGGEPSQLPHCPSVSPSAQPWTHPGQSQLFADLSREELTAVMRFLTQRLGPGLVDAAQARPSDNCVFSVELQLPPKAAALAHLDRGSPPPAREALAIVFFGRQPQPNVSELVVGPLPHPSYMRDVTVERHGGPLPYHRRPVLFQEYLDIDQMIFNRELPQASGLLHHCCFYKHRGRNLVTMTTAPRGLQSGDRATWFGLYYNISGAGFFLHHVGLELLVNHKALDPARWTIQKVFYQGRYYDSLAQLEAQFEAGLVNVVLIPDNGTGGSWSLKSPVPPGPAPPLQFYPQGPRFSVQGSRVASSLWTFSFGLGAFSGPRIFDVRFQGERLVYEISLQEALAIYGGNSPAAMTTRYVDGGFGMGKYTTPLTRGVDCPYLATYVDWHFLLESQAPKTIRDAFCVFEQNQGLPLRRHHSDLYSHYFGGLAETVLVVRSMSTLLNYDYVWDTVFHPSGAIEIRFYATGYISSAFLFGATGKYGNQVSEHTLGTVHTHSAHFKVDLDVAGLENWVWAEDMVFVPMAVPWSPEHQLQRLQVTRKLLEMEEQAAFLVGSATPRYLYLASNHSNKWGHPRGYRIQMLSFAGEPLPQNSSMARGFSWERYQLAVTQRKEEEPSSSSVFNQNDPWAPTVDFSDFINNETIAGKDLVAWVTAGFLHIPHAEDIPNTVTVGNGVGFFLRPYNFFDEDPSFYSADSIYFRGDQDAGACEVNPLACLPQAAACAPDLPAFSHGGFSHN
Put plainly: Activity evaluation on recombinant human VAP-1 (Amplex Red/HRP-coupled hydrogen peroxide assay, benzylamine substrate). Conditions: read-out: Inhibitory Activity (IC50, nM) human VAP-1. The gist of the method: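 Hydrogen peroxide from benzylamine (1 mM) oxidation by human recombinant VAP-1 detected via HRP-coupled Amplex Red (200 uM) fluorescence, kinetic over 1–2 h. Enzyme and compound preincubated 30 min at 37 °C, pH 7.4 phosphate; 8-point dose response, signal-rate decrease versus DMSO control fitted to four-parameter logistic for IC50.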

Experiment [1] concerns the target T2, recombinant human MAO-A (monoamine oxidase-A) (Homo sapiens, UniProt P21397).
T2 construct: purchased Sigma-Aldrich
T2 sequence (P21397 1-527): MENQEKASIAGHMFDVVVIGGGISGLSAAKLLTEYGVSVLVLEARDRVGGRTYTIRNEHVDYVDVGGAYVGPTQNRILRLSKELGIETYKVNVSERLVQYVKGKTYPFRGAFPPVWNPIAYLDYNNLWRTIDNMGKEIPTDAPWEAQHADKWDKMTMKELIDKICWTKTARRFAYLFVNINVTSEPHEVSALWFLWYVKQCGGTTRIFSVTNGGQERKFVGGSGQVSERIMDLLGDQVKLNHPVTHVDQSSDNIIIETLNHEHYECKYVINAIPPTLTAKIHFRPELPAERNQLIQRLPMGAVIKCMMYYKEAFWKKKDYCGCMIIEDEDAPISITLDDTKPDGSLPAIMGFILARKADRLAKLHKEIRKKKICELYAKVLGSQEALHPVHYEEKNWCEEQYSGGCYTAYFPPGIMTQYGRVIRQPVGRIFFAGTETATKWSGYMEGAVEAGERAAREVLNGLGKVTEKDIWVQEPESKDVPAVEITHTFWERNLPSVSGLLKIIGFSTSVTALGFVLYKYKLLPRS
Nature of the experiment: Activity evaluation on recombinant human MAO-A (Amplex Red/HRP-coupled assay, 0.5 mM tyramine substrate). To be noted: read-out: Inhibitory Activity (IC50, nM) MAO-A. Put shortly:
(§1)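 8-pt 1:3 dilution series, final DMSO <1%; 30 min 37 °C preincubation w/ enzyme, 50 mM Na phosphate pH 7.4; + 200 uM Amplex Red, 1 U/mL HRP, substrate (MAO-A tyramine 0.5 mM; MAO-B benzylamine 1 mM; DAO putrescine 1 mM); fluor. rate 544/590 nm, 1-2 h; 4-param IC50.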

For experiment [2], the target named is T3, recombinant human MAO-B (monoamine oxidase-B) (Homo sapiens, UniProt P27338).
T3 construct: purchased Sigma-Aldrich
T3 sequence (P27338 1-520): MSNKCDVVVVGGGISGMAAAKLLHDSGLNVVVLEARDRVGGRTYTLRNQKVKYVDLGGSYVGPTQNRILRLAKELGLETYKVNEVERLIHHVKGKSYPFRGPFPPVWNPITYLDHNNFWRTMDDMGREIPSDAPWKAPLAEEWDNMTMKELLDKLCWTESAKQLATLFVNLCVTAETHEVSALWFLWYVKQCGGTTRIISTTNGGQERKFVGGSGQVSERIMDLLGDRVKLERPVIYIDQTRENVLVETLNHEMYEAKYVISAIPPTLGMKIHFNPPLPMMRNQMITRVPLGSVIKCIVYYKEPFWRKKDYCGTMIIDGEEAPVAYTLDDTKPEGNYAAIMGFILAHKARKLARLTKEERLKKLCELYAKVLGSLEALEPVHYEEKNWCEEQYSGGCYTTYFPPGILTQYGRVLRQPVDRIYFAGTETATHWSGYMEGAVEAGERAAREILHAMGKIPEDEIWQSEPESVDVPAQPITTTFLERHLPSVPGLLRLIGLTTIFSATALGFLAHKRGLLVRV
Nature of the experiment: Activity evaluation on recombinant human MAO-B (Amplex Red/HRP-coupled assay, 1 mM benzylamine substrate). To be noted: read-out: Inhibitory Activity (IC50, nM) MAO-B. The gist of the method: as §1

In experiment [3] the target is T4, recombinant human DAO (diamine oxidase) (Homo sapiens, UniProt P19801).
T4 construct: purchased R&D systems
T4 sequence (P19801 20-751): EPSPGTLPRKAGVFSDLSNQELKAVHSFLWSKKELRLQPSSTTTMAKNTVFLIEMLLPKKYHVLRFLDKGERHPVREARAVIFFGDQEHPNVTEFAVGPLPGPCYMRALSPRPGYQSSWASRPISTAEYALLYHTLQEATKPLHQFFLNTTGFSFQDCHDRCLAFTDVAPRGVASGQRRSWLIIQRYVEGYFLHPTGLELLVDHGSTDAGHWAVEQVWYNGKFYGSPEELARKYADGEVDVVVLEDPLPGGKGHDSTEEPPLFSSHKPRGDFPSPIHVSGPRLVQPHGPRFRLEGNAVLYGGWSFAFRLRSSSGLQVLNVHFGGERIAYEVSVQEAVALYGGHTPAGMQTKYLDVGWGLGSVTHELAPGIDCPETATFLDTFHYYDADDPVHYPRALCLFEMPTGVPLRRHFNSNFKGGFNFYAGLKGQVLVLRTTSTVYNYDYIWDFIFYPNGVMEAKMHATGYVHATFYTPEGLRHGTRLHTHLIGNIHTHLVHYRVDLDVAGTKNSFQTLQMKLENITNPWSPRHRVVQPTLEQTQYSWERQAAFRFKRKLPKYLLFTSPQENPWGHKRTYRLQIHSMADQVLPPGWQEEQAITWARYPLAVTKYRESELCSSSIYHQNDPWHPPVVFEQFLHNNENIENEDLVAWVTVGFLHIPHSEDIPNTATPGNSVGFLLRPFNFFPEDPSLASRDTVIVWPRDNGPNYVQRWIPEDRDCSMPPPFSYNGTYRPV
Nature of the experiment: Activity evaluation on recombinant human DAO (Amplex Red/HRP-coupled assay, 1 mM putrescine substrate). Conditions: read-out: Inhibitory Activity (IC50, nM) DAO. The gist of the method: as §1

[4] abbreviates: recombinant human VAP-1, 30 min preincubation at 37° C., 1 mM benzylamine.
[5] abbreviates: recombinant human VAP-1, benzylamine substrate.

Counter-ions that a name gives are not always drawn. Like-named read-outs stand apart in the source and are kept apart here.

`NCC(Cn1ncn(-c2cnc(Br)cn2)c1=O)=C(F)F` [Example 16, 2-[2-(aminomethyl)-3,3-difluoro-allyl]-4-(5-bromopyrazin-2-yl)-1,2,4-triazol-3-one Trifluoroacetate]: the IC50 on recombinant human VAP-1 (setting [4]) was 4.6 nM; in experiment [1] (0.5 mM tyramine) it was over 100000 nM; in experiment [2] (1 mM benzylamine), 38000 nM; in experiment [3] (1 mM putrescine) it was 1100 nM.

For `CN(C)c1ccc(-c2cc(-n3cnn(CC(CN)=C(F)F)c3=O)ccn2)cn1` [Example 63, 2-[2-(aminomethyl)-3,3-difluoro-allyl]-4-[2-[6-(dimethylamino)-3-pyridyl]-4-pyridyl]-1,2,4-triazol-3-one Trifluoroacetate], the half-inhibitory concentration (IC50) on recombinant human VAP-1 (setting [4]) is 0.7 nM; in experiment [1] (0.5 mM tyramine), over 100000 nM; in experiment [2] (1 mM benzylamine), 16000 nM; in experiment [3] (1 mM putrescine), 110 nM.

Regarding `CCn1cc(-c2ccc3cc(Cn4cnn(CC(CN)=C(F)F)c4=O)sc3c2)cn1` [Example 204, 2-[2-(aminomethyl)-3,3-difluoro-allyl]-4-[[6-(1-ethylpyrazol-4-yl)benzothiophen-2-yl]methyl]-1,2,4-triazol-3-one Trifluoroacetate], the IC50 at recombinant human VAP-1 (setting [5]) is 0.5 nM; in experiment [1] (0.5 mM tyramine substrate) it was over 100000 nM; in experiment [2] (1 mM benzylamine substrate) it was 89900 nM; in experiment [3] (1 mM putrescine substrate), 41200 nM.

As to `NCC(Cn1ncn(-c2cnc(-c3ccc(C(F)(F)F)nc3)cn2)c1=O)=C(F)F` [Example 91, 2-[2-(aminomethyl)-3,3-difluoro-allyl]-4-[5-[6-(trifluoromethyl)-3-pyridyl]pyrazin-2-yl]-1,2,4-triazol-3-one Trifluoroacetate], the 50% inhibitory concentration (IC50) on recombinant human VAP-1 (setting [4]) is 0.5 nM; in experiment [1] (0.5 mM tyramine) it was over 100000 nM; in experiment [2] (1 mM benzylamine), 200 nM; in experiment [3] (1 mM putrescine), 1 nM.

`NCC(Cn1ncn(Cc2ccc(-c3ccc(C(F)(F)F)nc3)s2)c1=O)=C(F)F` [Example 111, 2-[2-(aminomethyl)-3,3-difluoro-allyl]-4-[[5-[6-(trifluoromethyl)-3-pyridyl]-2-thienyl]methyl]-1,2,4-triazol-3-one Trifluoroacetate]: the IC50 on recombinant human VAP-1 (setting [4]) is 0.4 nM; in experiment [1] (0.5 mM tyramine) it was over 100000 nM; in experiment [2] (1 mM benzylamine), 9400 nM; in experiment [3] (1 mM putrescine), 7200 nM.

Regarding `Cc1cc(Br)ncc1-n1cnn(CC(CN)=C(F)F)c1=O` [Example 12, 2-[2-(aminomethyl)-3,3-difluoro-allyl]-4-(6-bromo-4-methyl-3-pyridyl)-1,2,4-triazol-3-one Trifluoroacetate], the half-maximal inhibitory concentration (IC50) is 43 nM at recombinant human VAP-1 (setting [4]), over 100000 nM in experiment [1] (0.5 mM tyramine), over 10000 nM in experiment [2] (1 mM benzylamine) and 55000 nM in experiment [3] (1 mM putrescine).

For `NCC(Cn1ncn(Cc2cc(-c3ccc4c(c3)CCC(=O)N4)cs2)c1=O)=C(F)F` [Example 192, 6-[5-[[1-[2-(aminomethyl)-3,3-difluoro-allyl]-5-oxo-1,2,4-triazol-4-yl]methyl]-3-thienyl]-3,4-dihydro-1H-quinolin-2-one Trifluoroacetate], the IC50 at recombinant human VAP-1 (setting [5]) was 0.4 nM; in experiment [1] (0.5 mM tyramine substrate) it was over 100000 nM; in experiment [2] (1 mM benzylamine substrate), 56000 nM; in experiment [3] (1 mM putrescine substrate), 22000 nM.

In the case of `CCn1cc(-c2cccc(Cn3cnn(CC(CN)=C(F)F)c3=O)c2)cn1` [Example 271, 2-[2-(aminomethyl)-3,3-difluoro-allyl]-4-[[3-(1-ethylpyrazol-4-yl)phenyl]methyl]-1,2,4-triazol-3-one Trifluoroacetate], the concentration for half-maximal inhibition (IC50) at recombinant human VAP-1 (setting [5]) was 2.2 nM; in experiment [1] (0.5 mM tyramine substrate) it was over 100000 nM; in experiment [2] (1 mM benzylamine substrate), 1590 nM; in experiment [3] (1 mM putrescine substrate) it was over 100000 nM.

Take `Cn1cc(-c2csc(Cn3cnn(CC(CN)=C(F)F)c3=O)c2)ccc1=O` [Example 190, 5-[5-[[1-[2-(aminomethyl)-3,3-difluoro-allyl]-5-oxo-1,2,4-triazol-4-yl]methyl]-3-thienyl]-1-methyl-pyridin-2-one Trifluoroacetate]: the IC50 on recombinant human VAP-1 (setting [5]) was 1.4 nM; in experiment [1] (0.5 mM tyramine substrate) it was over 100000 nM; in experiment [2] (1 mM benzylamine substrate), over 100000 nM; in experiment [3] (1 mM putrescine substrate), 63000 nM.

For `Cc1cc(Br)cnc1-n1cnn(CC(CN)=C(F)F)c1=O` [Example 11, 2-[2-(aminomethyl)-3,3-difluoro-allyl]-4-(5-bromo-3-methyl-2-pyridyl)-1,2,4-triazol-3-one Trifluoroacetate], the IC50 on recombinant human VAP-1 (setting [4]) is 1.1 nM; in experiment [1] (0.5 mM tyramine) it was over 100000 nM; in experiment [2] (1 mM benzylamine), 57000 nM; in experiment [3] (1 mM putrescine), over 100000 nM.

As to `NCC(Cn1ncn(Cc2ccc(-c3cnn(C(F)F)c3)s2)c1=O)=C(F)F` [Example 183, 2-[2-(aminomethyl)-3,3-difluoro-allyl]-4-[[5-[1-(difluoromethyl)pyrazol-4-yl]-2-thienyl]methyl]-1,2,4-triazol-3-one Trifluoroacetate], the half-inhibitory concentration (IC50) was 1.4 nM at recombinant human VAP-1 (setting [5]), over 100000 nM in experiment [1] (0.5 mM tyramine substrate), 2100 nM in experiment [2] (1 mM benzylamine substrate) and over 100000 nM in experiment [3] (1 mM putrescine substrate).

The term IC50 denotes the concentration at which inhibition is half-maximal.

These data come from patent publication US11168073B2, “3,3-difluoroallylamines or salts thereof and pharmaceutical compositions comprising the same” (YUHAN CORPORATION, priority 2018, dated 2021).
